System: T1, phospholipase A (PLA, Lecitase Ultra)
T1 construct: gene LIP; one fused chain: T. lanuginosus lipase N-terminal part (1-284) + F. oxysporum phospholipase A1 C-terminal part (285-339); commercial Lecitase Ultra (Sigma-Aldrich), used without further purification; free form
Test: p-nitrophenol release, absorbance […] nm, Michaelis-Menten nonlinear fit
Format: biochemical, Thermomyces lanuginosus
Details: free enzyme; 0.1 to 1.2 mmol/L pNPB, 50 mmol/L phosphate pH 7.0, 0.004% Triton X-100, 30 °C

CCCC(=O)Oc1ccc([N+](=O)[O-])cc1 [p-nitrophenyl-butyrate]
Km: 490 ± 100 µM
